Laboratory results from patent US11976062B2, “Benzisoxazole compound” (OSAKA UNIVERSITY, priority 2018, dated 2024).

Target: T1, TRPC6 channel (Homo sapiens, UniProt Q9Y210)
T1 construct: expressed in transfected cells; host or cells: HEK293
T1 sequence (Q9Y210 1-931): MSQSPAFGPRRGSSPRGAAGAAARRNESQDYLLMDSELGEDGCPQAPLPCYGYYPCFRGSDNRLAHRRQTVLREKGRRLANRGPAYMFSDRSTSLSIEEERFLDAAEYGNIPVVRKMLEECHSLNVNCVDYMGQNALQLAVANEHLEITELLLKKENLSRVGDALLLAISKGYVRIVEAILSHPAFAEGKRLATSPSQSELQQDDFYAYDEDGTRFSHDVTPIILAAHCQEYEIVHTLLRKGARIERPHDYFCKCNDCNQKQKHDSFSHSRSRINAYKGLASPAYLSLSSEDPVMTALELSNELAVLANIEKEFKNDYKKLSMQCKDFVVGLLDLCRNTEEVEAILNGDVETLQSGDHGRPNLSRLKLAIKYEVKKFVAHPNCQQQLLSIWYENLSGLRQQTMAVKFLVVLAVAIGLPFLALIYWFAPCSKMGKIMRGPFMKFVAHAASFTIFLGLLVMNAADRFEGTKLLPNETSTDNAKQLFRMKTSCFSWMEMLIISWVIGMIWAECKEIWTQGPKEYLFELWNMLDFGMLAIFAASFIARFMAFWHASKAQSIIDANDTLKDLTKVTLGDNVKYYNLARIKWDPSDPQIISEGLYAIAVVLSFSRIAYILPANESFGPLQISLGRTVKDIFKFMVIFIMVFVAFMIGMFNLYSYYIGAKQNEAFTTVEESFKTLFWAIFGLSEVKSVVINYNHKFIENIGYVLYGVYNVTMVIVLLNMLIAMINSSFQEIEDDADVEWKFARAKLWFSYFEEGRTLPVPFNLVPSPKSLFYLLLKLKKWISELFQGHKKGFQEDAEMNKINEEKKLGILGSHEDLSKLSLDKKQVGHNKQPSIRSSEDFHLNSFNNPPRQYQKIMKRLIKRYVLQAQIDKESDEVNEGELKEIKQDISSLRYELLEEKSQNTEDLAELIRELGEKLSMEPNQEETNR
Assay: Calcium assay using HEK293 cells transiently expressing TRPC6 channel, carbachol activation (Fura-2)
Assay type: cell-based
Conditions: 10 μM test compound, carbachol
Protocol: A TRPC6 gene was introduced into HEK293 cells (cells derived from human fetal kidney) by lipofection, and the TRPC6 channel was expressed on the cell membrane. Specifically, the plasmid DNA of TRPC6 (pCI-neo; Promega Corporation) was introduced into HEK293 cells using a lipofection reagent, and then cultured at 37° C. for 24 to 48 hours to express the TRPC6 channel on the cell membrane. In the same manner, HEK293 cells into which the TRPC3 gene was introduced were cultured, and the TRPC3 channel was expressed on the cell membrane.
The cultured cells were peeled off with trypsin and seeded on a cover glass again, followed by culturing the cells at 37° C. for 3 hours again. A Fura-2 AM calcium indicator was added to the medium, and the cells were cultured at 37° C. for 30 minutes to allow the cells to incorporate the indicator. For the extracellular solution, a Ca^2+-containing solution and a Ca^2+-free solution were prepared. • Ca^2+-containing solution: 2 mM CaCl2, 132 mM NaCl, 4 mM KCl, 1 mM MgCl2, 5 mM glucose, 5 mM HEPES (pH 7.4) • Ca^2+-free solution: 132 mM NaCl, 4 mM KCl, 1 mM MgCl2, 5 mM glucose, 5 mM HEPES (pH 7.4)
After the cells were added to the Ca^2+-containing solution, the following operation was performed while the fluorescence intensity (510 nm) of Fura-2 was measured at room temperature with an ARGUS CA-20 (Hamamatsu Photonics K.K.) over time. • 0 minutes: TRPC3-expressing cells or TRPC6-expressing cells are placed in a measurement chamber that contains the Ca^2+-containing solution. • After 30 seconds: The Ca^2+-containing solution is replaced with the Ca^2+-free solution. • After 1 minute: A predetermined amount of a test compound is added to the Ca^2+-free solution. • After 3 minutes: Carbachol (100 μM) is added to the Ca^2+-free solution. • After 7 minutes: The Ca^2+-free solution is replaced with the Ca^2+-containing solution that contains a test compound and carbachol […]. • After 15 minutes: Measurement is ended.
Compound 011 was used as the test compound, and the amount of the test compound added was 0.01, 0.1, 0.5, 1.0, 5.0, 10, or 50 μM. For the control, 0.1% DMSO was used in place of the test compound. Carbachol (cch) is a TRPC-channel-activating reagent. Applying carbachol to cells opens the TRPC channel and allows a large amount of Ca^2+ in the extracellular solution to flow into the cells. Fura-2 AM has high cell membrane permeability due to the presence of an AM group (acetoxymethyl group), and is thus easily incorporated into the cells. The AM group is hydrolyzed in the cells to become Fura-2. Thus, Fura-2 can form a chelate with Ca^2+ and is also unlikely to leak out of the cells due to the loss of the AM group.
In the same manner as in Test Example 1, the maximum calcium ion concentration was measured after 7 minutes from the start of measurement (i.e., after replacement with the Ca^2+-containing solution) by using TRPC6-expressing cells prepared in the same manner as in Test Example 1, except that 10 μM of Pyr 4 and 10 μM of compound 011, 031, 041, or 191 (test compound) were used. The average value of calcium ion concentrations up to 30 seconds after the start of measurement (the initial value of calcium ion concentration) was subtracted from the maximum calcium ion concentration, and the calculated value was determined to be the amount of increase in calcium ions. FIG. 3 illustrates the results.
The calcium ion concentration was measured in the same manner as in Test Example 2, except that 10 μM of compound 011, 361, 362(E), 362(Z), 371, 372(Z), 381, or 401 (test compound) was used, and Pyr 4 was not used, thereby determining the amount of increase in calcium ions. Table 2 illustrates the amount of increase in calcium ions for each test compound relative to the amount of increase in calcium ions in the control (DMSO) taken as 100%.

SMILES | suppression of TRPC6 channel activation (decrease in calcium ion influx, FIG. 3)
C[C@H]1CN(c2ncc(C(=O)O)cc2Cl)CCN1c1noc2cccc(C(F)(F)F)c12 [Compound 031, (S)-5-chloro-6-(3-methyl-4-(4-(trifluoromethyl)benzo[d]isoxazol-3-yl)piperazin-1-yl) nicotinic acid] | activation of the TRPC6 channel was suppressed
C[C@@H]1CN(c2ncc(C(=O)O)cc2Cl)CCN1c1noc2cccc(C(F)(F)F)c12 [Compound 041, (R)-5-chloro-6-(3-methyl-4-(4-(trifluoromethyl)benzo[d]isoxazol-3-yl)piperazin-1-yl) nicotinic acid] | activation of the TRPC6 channel was suppressed
O=C(O)c1cnc(N2CC3CCC(C2)N3c2noc3cccc(C(F)(F)F)c23)c(Cl)c1 [Compound 191, 5-chloro-6-(8-(4-(trifluoromethyl)benzo[d]isoxazol-3-yl)-3,8-diazabicyclo[3,2,1]octan-3-yl)nicotinic acid] | activation of the TRPC6 channel was suppressed

Same assay, conditions: 10 μM test compound, carbachol, TRPC6-expressing cells

SMILES | amount of increase in calcium ions relative to control (DMSO) taken as 100%
FC(F)(F)c1cccc2onc(N3CC=C(c4ccccc4Cl)CC3)c12 [Compound 361, 3-(4-(2-chlorophenyl)-3,6-dihydropyridin-1(2H)-yl)-4-(trifluoromethyl)benzo[d]isoxazole] | 72%
O/N=C(\c1c(F)cccc1C(F)(F)F)N1CC=C(c2ccccc2Cl)CC1 [Compound 362(E), E-(4-(2-chlorophenyl)-3,6-dihydropyridin-1(2H)-yl)(2-fluoro-6-(trifluoromethyl)phenyl)methanone oxime] | 65%
O/N=C(/c1c(F)cccc1C(F)(F)F)N1CC=C(c2ccccc2Cl)CC1 [Compound 362(Z), (Z)-(4-(2-chlorophenyl)-3,6-dihydropyridin-1(2H)-yl)(2-fluoro-6-(trifluoromethyl)phenyl)methanone oxime] | 54%
CCOC(=O)c1cnc(N2CCN(c3noc4cccc(C(F)(F)F)c34)CC2=O)c(Cl)c1 [Compound 371, ethyl 5-chloro-6-(2-oxo-4-(4-(trifluoromethyl)benzo[d]isoxazol-3-yl)piperazin-1-yl) nicotinate] | 61%
CCOC(=O)c1cnc(N2CCN(/C(=N\O)c3c(F)cccc3C(F)(F)F)CC2=O)c(Cl)c1 [Compound 372(Z), ethyl (Z)-5-chloro-6-(4-((2-fluoro-6-(trifluoromethyl)phenyl)(hydroxyimino)methyl)-2-oxopiperazin-1-yl)nicotinate] | 72%
O=C(O)c1cnc(N2CCN(c3noc4cccc(C(F)(F)F)c34)CC2=O)c(Cl)c1 [Compound 381, 5-chloro-6-(2-oxo-4-(4-(trifluoromethyl)benzo[d]isoxazol-3-yl)piperazin-1-yl)nicotinic acid] | 57%
O=C(O)c1ccc(C2=CCN(c3noc4cccc(C(F)(F)F)c34)CC2)c(Cl)c1 [Compound 401, 3-chloro-4-(1-(4-(trifluoromethyl)benzo[d]isoxazol-3-yl)-1,2,3,6-tetrahydropyridin-4-yl)benzoic acid] | 19%

Tested on: cardiac fibrosis induced by pressure overload
Assay: not given
Conditions: mice, NPL 1 and 2; cited from earlier work

SMILES | suppression of cardiac fibrosis induced by pressure overload
CCOC(=O)c1cnn(-c2ccc(NC(=O)C(Cl)=C(Cl)Cl)cc2)c1C(F)(F)F [Pyr3] | potently suppresses cardiac fibrosis induced by pressure overload

Target: T1, TRPC6 channel
Assay: Calcium assay using HEK293 cells transiently expressing TRPC6 channel, ATP as activating reagent
Assay type: cell-based
Conditions: 10 μM test compound
Protocol: In the same manner as in Test Example 2, the calcium ion concentration was measured, except that 10 μM of Pyr 4 and 10 μM of compound 202(E), 061, or 071 (test compound) were used, and ATP was used as a TRPC channel activating reagent instead of carbachol, thereby determining the amount of increase in calcium ions. FIG. 4 illustrates the results.

SMILES | suppression of TRPC6 channel activation (decrease in calcium ion influx, FIG. 4)
Clc1ccccc1N1CCN(c2noc3cccc(Cl)c23)CC1 [Compound 061, 4-chloro-3-(4-(2-chlorophenyl)piperazin-1-yl)benzo[d]isoxazole] | activation of the TRPC6 channel was suppressed
Clc1cccnc1N1CCN(c2noc3cccc(Cl)c23)CC1 [Compound 071, 4-chloro-3-(4-(3-chloropyridin-2-yl)piperazin-1-yl)benzo[d]isoxazole] | activation of the TRPC6 channel was suppressed
O/N=C(\c1cccc(Cl)c1Cl)N1CCN(c2ccccc2Cl)CC1 [Compound 202(E), (E)-(4-(2-chlorophenyl)piperazin-1-yl)(2,3-dichlorophenyl)methanone oxime] | activation of the TRPC6 channel was suppressed
